#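 How tested: cells in 96-well plates exposed to compound for 48 hours at five concentrations. GI50 = concentration required for 50% inhibition of growth. TGI: total growth inhibition.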
# Experiments:
# Assay in all cases: growth of human tumour cells (NCI), 48 h
# MOLT-4 leukemia = test system: MOLT-4 leukemia
# SNB-19 CNS = test system: SNB-19 CNS
# HL-60(TB) leukemia = test system: HL-60(TB) leukemia
# CCRF-CEM leukemia = test system: CCRF-CEM leukemia
# HOP-92 NSCLC = test system: HOP-92 NSCLC
# NCI-H226 lung = test system: NCI-H226 lung
# OVCAR-5 ovarian = test system: OVCAR-5 ovarian
# HCC-2998 colon = test system: HCC-2998 colon
# UACC-257 melanoma = test system: UACC-257 melanoma
# SK-MEL-2 melanoma = test system: SK-MEL-2 melanoma
# MDA-MB-231 breast = test system: MDA-MB-231 breast
# M14 melanoma = test system: M14 melanoma
# IGROV1 ovarian = test system: IGROV1 ovarian
# MCF7 breast = test system: MCF7 breast
# HCT-116 colon = test system: HCT-116 colon
# RXF 393 renal = test system: RXF 393 renal
# SN12C renal = test system: SN12C renal
# K-562 leukemia = test system: K-562 leukemia
# U251 CNS = test system: U251 CNS
# PC-3 prostate = test system: PC-3 prostate
# 786-0 renal = test system: 786-0 renal
# HT29 colon = test system: HT29 colon
# LOX IMVI melanoma = test system: LOX IMVI melanoma
# MALME-3M melanoma = test system: MALME-3M melanoma
# DU-145 prostate = test system: DU-145 prostate
# SNB-75 CNS = test system: SNB-75 CNS
# NCI-H522 lung = test system: NCI-H522 lung
# T-47D breast = test system: T-47D breast
# UO-31 renal = test system: UO-31 renal
# HS 578T breast = test system: HS 578T breast
# COLO 205 colon = test system: COLO 205 colon
# SK-MEL-5 melanoma = test system: SK-MEL-5 melanoma
# OVCAR-8 ovarian = test system: OVCAR-8 ovarian
# A498 renal = test system: A498 renal
# UACC-62 melanoma = test system: UACC-62 melanoma
# SF-539 CNS = test system: SF-539 CNS
# SF-268 CNS = test system: SF-268 CNS
# EKVX NSCLC = test system: EKVX NSCLC
# RPMI-8226 leukemia = test system: RPMI-8226 leukemia
# NCI-H23 lung = test system: NCI-H23 lung
# SF-295 CNS = test system: SF-295 CNS
# SW-620 colon = test system: SW-620 colon
# OVCAR-3 ovarian = test system: OVCAR-3 ovarian
# SK-OV-3 ovarian = test system: SK-OV-3 ovarian
# BT-549 breast = test system: BT-549 breast
# TK-10 renal = test system: TK-10 renal
# NCI-H460 lung = test system: NCI-H460 lung
# KM12 colon = test system: KM12 colon
# SR leukemia = test system: SR leukemia
# NCI/ADR-RES ovarian = test system: NCI/ADR-RES ovarian
# A549 NSCLC = test system: A549 NSCLC
# ACHN renal = test system: ACHN renal
# OVCAR-4 ovarian = test system: OVCAR-4 ovarian
# HCT-15 colon = test system: HCT-15 colon
# MDA-MB-435 = test system: MDA-MB-435
# SK-MEL-28 melanoma = test system: SK-MEL-28 melanoma
smiles,measurement,setting,value
FC(F)(F)c1ccc2c(Nc3cccc(C4CC(c5ccccc5)=NN4c4ccc(Cl)cc4)c3)ccnc2c1 (configuration not stated),GI50,MOLT-4 leukemia,3.6 µM
same,TGI,MOLT-4 leukemia,19.5 µM
same,GI50,SNB-19 CNS,4.38 µM
same,TGI,SNB-19 CNS,27 µM
same,GI50,HL-60(TB) leukemia,4.04 µM
same,TGI,HL-60(TB) leukemia,18.8 µM
same,GI50,CCRF-CEM leukemia,3.32 µM
same,TGI,CCRF-CEM leukemia,38.5 µM
same,GI50,HOP-92 NSCLC,3.21 µM
same,TGI,HOP-92 NSCLC,40.5 µM
same,GI50,NCI-H226 lung,15 µM
same,TGI,NCI-H226 lung,36.2 µM
same,GI50,OVCAR-5 ovarian,4.13 µM
same,TGI,OVCAR-5 ovarian,20.5 µM
same,GI50,HCC-2998 colon,1.96 µM
same,TGI,HCC-2998 colon,4.01 µM
same,GI50,UACC-257 melanoma,11.2 µM
same,TGI,UACC-257 melanoma,32.6 µM
same,GI50,SK-MEL-2 melanoma,15.1 µM
same,TGI,SK-MEL-2 melanoma,42.9 µM
same,GI50,MDA-MB-231 breast,3.88 µM
same,TGI,MDA-MB-231 breast,15.9 µM
same,GI50,M14 melanoma,3.93 µM
same,TGI,M14 melanoma,22 µM
same,GI50,IGROV1 ovarian,2.57 µM
same,TGI,IGROV1 ovarian,11 µM
same,GI50,MCF7 breast,1.67 µM
same,TGI,MCF7 breast,10.6 µM
same,GI50,HCT-116 colon,1.62 µM
same,TGI,HCT-116 colon,3.63 µM
same,GI50,RXF 393 renal,4.82 µM
same,TGI,RXF 393 renal,20.1 µM
same,GI50,SN12C renal,2.96 µM
same,TGI,SN12C renal,14.6 µM
same,GI50,K-562 leukemia,3.31 µM
same,TGI,K-562 leukemia,14.3 µM
same,GI50,U251 CNS,3.24 µM
same,TGI,U251 CNS,14.4 µM
same,GI50,PC-3 prostate,3.77 µM
same,TGI,PC-3 prostate,16.6 µM
same,GI50,786-0 renal,2.73 µM
same,TGI,786-0 renal,10.7 µM
same,GI50,HT29 colon,3.3 µM
same,TGI,HT29 colon,12.5 µM
same,GI50,LOX IMVI melanoma,1.68 µM
same,TGI,LOX IMVI melanoma,3.81 µM
same,GI50,MALME-3M melanoma,4.38 µM
same,TGI,MALME-3M melanoma,21 µM
same,GI50,DU-145 prostate,3.61 µM
same,TGI,DU-145 prostate,15.4 µM
same,GI50,SNB-75 CNS,2.67 µM
same,TGI,SNB-75 CNS,20.8 µM
same,GI50,NCI-H522 lung,6.16 µM
same,TGI,NCI-H522 lung,38.6 µM
same,GI50,T-47D breast,5.93 µM
same,TGI,T-47D breast,37.4 µM
same,GI50,UO-31 renal,1.82 µM
same,TGI,UO-31 renal,9.68 µM
same,GI50,HS 578T breast,4.43 µM
same,TGI,HS 578T breast,43.2 µM
same,GI50,COLO 205 colon,10.7 µM
same,TGI,COLO 205 colon,> 100 µM
same,GI50,SK-MEL-5 melanoma,8.77 µM
same,TGI,SK-MEL-5 melanoma,26.5 µM
same,GI50,OVCAR-8 ovarian,3.57 µM
same,TGI,OVCAR-8 ovarian,19.7 µM
same,GI50,A498 renal,9.9 µM
same,TGI,A498 renal,45.6 µM
same,GI50,UACC-62 melanoma,2.64 µM
same,TGI,UACC-62 melanoma,10.6 µM
same,GI50,SF-539 CNS,4.78 µM
same,TGI,SF-539 CNS,19.5 µM
same,GI50,SF-268 CNS,3.35 µM
same,TGI,SF-268 CNS,21.5 µM
same,GI50,EKVX NSCLC,10.9 µM
same,TGI,EKVX NSCLC,59.5 µM
same,GI50,RPMI-8226 leukemia,2.3 µM
same,TGI,RPMI-8226 leukemia,6.46 µM
same,GI50,NCI-H23 lung,4.22 µM
same,TGI,NCI-H23 lung,25.3 µM
same,GI50,SF-295 CNS,2.25 µM
same,TGI,SF-295 CNS,8.67 µM
same,GI50,SW-620 colon,2.79 µM
same,TGI,SW-620 colon,8.34 µM
same,GI50,OVCAR-3 ovarian,2.21 µM
same,TGI,OVCAR-3 ovarian,6.02 µM
same,GI50,SK-OV-3 ovarian,11.2 µM
same,TGI,SK-OV-3 ovarian,36.4 µM
same,GI50,BT-549 breast,2.29 µM
same,TGI,BT-549 breast,7.4 µM
same,GI50,TK-10 renal,4.76 µM
same,TGI,TK-10 renal,21.4 µM
same,GI50,NCI-H460 lung,4.08 µM
same,TGI,NCI-H460 lung,17.2 µM
same,GI50,KM12 colon,3.16 µM
same,TGI,KM12 colon,16.7 µM
same,GI50,SR leukemia,1.26 µM
same,TGI,SR leukemia,9.41 µM
same,GI50,NCI/ADR-RES ovarian,2.63 µM
same,TGI,NCI/ADR-RES ovarian,10.3 µM
same,GI50,A549 NSCLC,10.7 µM
same,TGI,A549 NSCLC,44.8 µM
same,GI50,ACHN renal,2.9 µM
same,TGI,ACHN renal,11.1 µM
same,GI50,OVCAR-4 ovarian,4.99 µM
same,TGI,OVCAR-4 ovarian,28.9 µM
same,GI50,HCT-15 colon,1.61 µM
same,TGI,HCT-15 colon,4.26 µM
same,GI50,MDA-MB-435,2.97 µM
same,TGI,MDA-MB-435,11.6 µM
same,GI50,SK-MEL-28 melanoma,4.54 µM
same,TGI,SK-MEL-28 melanoma,18.3 µM

# From PubChem BioAssay (NCI)
